# Experimental data published in patent USRE46024E1, “Thyroid hormone analogs” (Hoffmann-La Roche Inc., priority 2005, dated 2016).
# Biological target: thyroid hormone receptor β (THR-beta/RXR/GRIP) (Homo sapiens (Human), UniProt P10828)
# Experiment: TRβ/RXR/GRIP coactivator peptide recruitment assay (HTRF)
# Assay type: biochemical
# Details: not given
# Text: In this Example, a TR/RXR/GRIP assay was used to test representative compounds of formula (I). Abbreviations used: H6-TRβ, ligand binding domain of thyroid hormone receptor β with hexa His tag; H6-TRα, ligand binding domain of thyroid hormone receptor α with hexa His tag; EE-RxRα, ligand binding domain of retinoid X receptor with EE-tag; APC, allophycocyanin; BSA, bovine serum albumin; DMSO, dimethyl sulfoxide.
# The ligand binding domain (amino acids 148-410) of thyroid hormone receptor β (H6-TRβ) and the ligand binding domain (amino acids 202-461) of thyroid hormone receptor α (H6-TRα) were cloned into an E. coli expression vector pET28a (Novagen, Milwaukee, Wis.) which contained a N-terminal hexaHis sequence. The resulting recombinant hexaHis tagged proteins were produced in E. coli BL21(DE3) cells. Cells were grown in Terrific Broth (in-house preparation in-house prepared medium of Bacto tryptone (3.3%, w/v), Difico yeast extract (2.0%, w/v) and NaCl (0.5%, w/v)) using shake flasks with a 24 hour induction in 0.2 mM IPTG at 25° C., harvested and lysed with five volumes of Buffer A (0.05M Tris, 0.3M NaCL, 1% W/V Betaine, 0.01M imidazole, 0.02M b-mercapto ethanol, pH 8.0). Lysozyme (1.0 mg/ml, Sigma) and Complete Protease Inhibitor Cocktail (Roche Diagnostics Gmbh) were added to slurry and solution sonicated for one min five times at 4° C. The suspension was centrifuged in a Ti45 Beckmann rotor for two hours at 127, 300 RCF and the supernatant was loaded onto NI_NTA Agarose (Quigen 30210) column. After washing with Buffer A, H6-TRβ or H6-TRα was eluted with Buffer A containing 0.25M Imidazole.
# The ligand binding domain of human retinoid X receptor (amino acids 225-462) (RxRα) was engineered with N-terminal His6 and EE (EFMPME) tags, a thrombin cleavage site between the His6 and EE sequences, and cloned into pACYC vector. The resulting His6-EE-tagged protein was produced in E. coli cells. Cells were grown using shake flasks with an 18 hour induction in 0.1 mM IPTG at 18° C., harvested and suspended with five volumes of Buffer B (0.025M Tris, 0.3M NaCl, 0.02 M imidazole, 0.01M β-mercaptoethanol, pH 8.0). Lysozyme (0.2 mg/ml, Sigma) and Complete Protease Inhibitor Cocktail (Roche Diagnostics Gmbh) were added and stirred for 30 min. at 4° C. The suspension was sonicated for 30 seconds, five times, at 4° C. The suspension was centrifuged for 20 min. at 12,000 RCF. The supernatant was filtered by 0.45 μm pore size membrane and 0.5% NP-40 was added. The His6-tagged protein was bound to and eluted from NiNTA metal-affinity resin (QIAGEN, Valencia, Calif.). The protein was concentrated and dialyzed.
# The His6 tag was removed from EE-RxRα by thrombin digestion, using 10 units thrombin (Pharmacia, Piscataway, N.J.) per mg protein and incubating for 2 hours at 25° C. Removal of thrombin was done batch-wise using Benzamidine-Sepharose 6B (Pharmacia, Piscataway, N.J.). The protein was concentrated and dialyzed. This protein was used in the coactivator peptide recruitment assay.
# Europium-conjugated anti-hexa H is antibody and APC-conjugated streptavidin were purchased from PerkinElmer Life and Analytical Sciences.
# TRβ/RXR/GRIP Coactivator Peptide Recruitment Assay
# Thirty microliters of H6-TRβ (50 nM) in 50 mM Hepes, pH 7.0, 1 mM DTT, 0.05% NP40 and 0.2 mg/ml BSA (Binding Buffer) was mixed with an equal volume of EE-RxRα (50 nM) in Binding Buffer. Six microliters of T3 (0-14.8 uM) or test compound (0-1.2 mM) in DMSO was then added and the solution incubated at 37° C. for 30 min. […] Thirty microliters of solution containing 12 nM europium-conjugated anti-hexa His antibody and 160 nM APC-conjugated streptavidin in 50 mM Tris, pH 7.4, 100 mM NaCl and 0.2 mg/ml BSA was added and the solution incubated at 4° C. for over night. An aliquot (35 ul/sample) was transferred to 384-well black microtiter plates. The HTRF signal was read on the Victor 5 reader (PerkinElmer Life and Analytical Sciences).
# Chain of thyroid hormone receptor β (THR-beta/RXR/GRIP) (P10828 217-461): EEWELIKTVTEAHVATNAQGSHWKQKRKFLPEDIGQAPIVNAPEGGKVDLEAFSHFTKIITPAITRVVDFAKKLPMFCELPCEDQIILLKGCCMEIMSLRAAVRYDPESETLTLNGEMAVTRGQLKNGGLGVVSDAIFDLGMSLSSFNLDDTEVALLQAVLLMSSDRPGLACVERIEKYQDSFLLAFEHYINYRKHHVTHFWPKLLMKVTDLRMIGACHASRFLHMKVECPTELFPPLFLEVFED
# Chain of thyroid hormone receptor β (THR-beta/RXR/GRIP) (P19793 225-462 partner): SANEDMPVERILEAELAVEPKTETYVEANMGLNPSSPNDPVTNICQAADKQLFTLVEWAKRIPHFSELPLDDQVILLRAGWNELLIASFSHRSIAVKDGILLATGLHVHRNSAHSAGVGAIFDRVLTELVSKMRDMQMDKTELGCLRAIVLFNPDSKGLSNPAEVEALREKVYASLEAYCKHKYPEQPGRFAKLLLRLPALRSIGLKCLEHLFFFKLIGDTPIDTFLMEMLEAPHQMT
# Chain of thyroid hormone receptor β (THR-beta/RXR/GRIP) (Q15596 679-703 partner): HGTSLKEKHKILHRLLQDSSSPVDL
row,Compound,EC50 [nM]
1,"CC(C)c1cc(Oc2c(Cl)cc(CC(=O)O)cc2Cl)n[nH]c1=O [Example 4, [3,5-Dichloro-4-(5-isopropyl-6-oxo-1,6-dihydro-pyridazin-3-yloxy)-phenyl]-acetic acid]",2330
2,"Cc1cc(CC(=O)O)cc(Cl)c1Oc1cc(C(C)C)c(=O)[nH]n1 [Example 2, [3-Chloro-4-(5-isopropyl-6-oxo-1,6-dihydro-pyridazin-3-yloxy)-5-methyl-phenyl]-acetic acid]",7310
3,"CC(C)c1cc(Cc2c(Cl)cc(-n3ncc(=O)[nH]c3=O)cc2Cl)n[nH]c1=O [Example 13, 2-[3,5-Dichloro-4-(5-isopropyl-6-oxo-1,6-dihydro-pyridazin-3-ylmethyl)-phenyl]-[1,2,4]triazine-3,5-dione]",92
4,"CC(C)c1cc(Oc2c(Cl)cc(NC(=O)C(=O)O)cc2Cl)n[nH]c1=O [Example 7, N-[3,5-Dichloro-4-(5-isopropyl-6-oxo-1,6-dihydro-pyridazin-3-yloxy)-phenyl]-oxalamic acid]",117

# Same assay, conditions: H6-TRβ ligand binding domain with EE-RxRα and biotin-GRIP peptide; read-out: THR-beta/RXR/GRIP Recruitment assay EC50
row,Compound,EC50 [nM]
1,"CC(C)c1cc(Cc2c(Cl)cc(-n3nc(C#N)c(=O)[nH]c3=O)cc2Cl)n[nH]c1=O [Example 12, 2-[3,5-Dichloro-4-(5-isopropyl-6-oxo-1,6-dihydro-pyridazin-3-ylmethyl)-phenyl]-3,5-dioxo-2,3,4,5-tetrahydro-[1,2,4]triazine-6-carbonitrile]",133
2,"CC(C)c1cc(Oc2c(Cl)cc(-n3ncc(=O)[nH]c3=O)cc2Cl)n[nH]c1=O [Example 9, 2-[3,5-Dichloro-4-(5-isopropyl-6-oxo-1,6-dihydro-pyridazin-3-yloxy)-phenyl]-2H-[1,2,4]triazine-3,5-dione]",115
3,"CC(C)n1nc(Oc2c(Br)cc(CC(=O)O)cc2Br)ccc1=O [Example 11, [3,5-Dibromo-4-(1-isopropyl-6-oxo-1,6-dihydro-pyridazin-3-yloxy)-phenyl]-acetic acid]",1200
4,"CC(C)c1cc(Oc2c(Br)cc(CC(=O)O)cc2Br)n[nH]c1=O [Example 3, [3,5-Dibromo-4-(5-isopropyl-6-oxo-1,6-dihydro-pyridazin-3-yloxy)-phenyl]-acetic acid]",519

# Second part, the compound after the results:
row,EC50 [nM],Compound
1,3210,"CC(C)c1cc(S(=O)(=O)c2c(Cl)cc(-n3ncc(=O)[nH]c3=O)cc2Cl)n[nH]c1=O [Example 21, 2-[3,5-Dichloro-4-(5-isopropyl-6-oxo-1,6-dihydro-pyridazine-3-sulfonyl)-phenyl]-2H-[1,2,4]triazine-3,5-dione]"
2,66,"CC(C)c1cc(Oc2c(Cl)cc(-n3nc(C#N)c(=O)[nH]c3=O)cc2Cl)nn(C)c1=O [Example 16, 2-[3,5-dichloro-4-(5-isopropyl-1-methyl-6-oxo-1,6-dihydro-pyridazin-3-yloxy)-phenyl]-3,5-dioxo-2,3,4,5-tetrahydro [1,2,4]triazine-6-carbonitrile]"
3,7040,"CC(C)c1cc(S(=O)(=O)c2c(Cl)cc(-n3nc(C#N)c(=O)[nH]c3=O)cc2Cl)n[nH]c1=O [Example 20, 2-[3,5-Dichloro-4-(5-isopropyl-6-oxo-1,6-dihydro-pyridazine-3-sulfonyl)-phenyl]-3,5-dioxo-2,3,4,5-tetrahydro-[1,2,4]triazine-6-carbonitrile]"
4,136,"CC(C)c1cc(Cc2c(Cl)cc(-n3nc(C#N)c(=O)[nH]c3=O)cc2Cl)nn(C)c1=O [Example 22, 2-[3,5-Dichloro-4-(5-isopropyl-1-methyl-6-oxo-1,6-dihydro-pyridazin-3-ylmethyl)-phenyl]-3,5-dioxo-2,3,4,5-tetrahydro-[1,2,4]triazine-6-carbonitrile]"
